Assay results as given in patent publication US10167262B2, “Herbicidal substituted 3-arylpyrazoles” (FMC CORPORATION, priority 2014, dated 2019).

What was measured:
Test in all cases: Test C pre-/postemergence greenhouse test, plant response rating 0-100;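 for Plant response rating (0 to 100), Blackgrass: 0 is no effect and 100 is complete control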;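 for Plant response rating (0 to 100), Ragweed: 0 is no effect and 100 is complete control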;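 for Plant response rating, Blackgrass: 0 is no effect and 100 is complete control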;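 for Plant response rating, Ragweed: 0 is no effect and 100 is complete control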
Assay type in all cases: in vivo
[1] = tested on: lambsquarters (Chenopodium album)
Summary of the method: (§1)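 After treatment, pots stay in the greenhouse 13–15 days before each species is compared with untreated controls and given a 0–100 visual score. Preemergence seeds are in loam blended with sand; postemergence plants, 1–4 leaves, are in peat-based medium.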

[2] = tested on: corn (Zea mays)
Summary of the method: as §1

[3] = tested on: velvetleaf (Abutilon theophrasti)
Summary of the method: as §1

[4] = tested on: yellow nutsedge (Cyperus esculentus)
Summary of the method: as §1

[5] = tested on: blackgrass (Alopecurus myosuroides);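 note: 0 is no effect and 100 is complete control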
Summary of the method: as §1

[6] = tested on: large (Lg) crabgrass (Digitaria sanguinalis)
Summary of the method: as §1

[7] = tested on: galium (catchweed bedstraw, Galium aparine)
Summary of the method: as §1

[8] = tested on: pigweed (Amaranthus retroflexus)
Summary of the method: as §1

[9] = tested on: soybean (Glycine max)
Summary of the method: as §1

[10] = tested on: morningglory (Ipomoea coccinea)
Summary of the method: as §1

[11] = tested on: ragweed (common ragweed, Ambrosia elatior);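 note: 0 is no effect and 100 is complete control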
Summary of the method: as §1

[12] = tested on: Italian ryegrass (Lolium multiflorum)
Summary of the method: as §1

[13] = Postemergence, 250 g ai/ha, scale 0 to 100
[14] = Postemergence, 500 g ai/ha, scale 0 to 100

Which “Plant response rating (0 to 100), Lambsquarters” value ([1]; Postemergence, 62 g ai/ha) does the source give for `CCOC(OCC)(c1cccs1)c1c[nH]nc1-c1cc(Cl)cc(Cl)c1` [Compound 27] here?
The value was 75.

And the “Plant response rating (0 to 100), Lambsquarters” value ([1]; Postemergence, 125 g ai/ha)?
The value was 95.

What about the “Plant response rating, Lambsquarters” value [1, 13] of the same compound?
The value was 98.

And the “Plant response rating, Lambsquarters” value [1, 14]?
Its value is 98.

And the “Plant response rating, Lambsquarters” value ([1]; Preemergence, 62 g ai/ha)?
The value was 100.

What about the “Plant response rating, Lambsquarters” value ([1]; Preemergence, 125 g ai/ha) of the same compound?
The value was 100.

What about the “Plant response rating, Lambsquarters” value ([1]; Preemergence, 250 g ai/ha) of the same compound?
The value was 100.

What about the “Plant response rating, Lambsquarters” value ([1]; Preemergence, 500 g ai/ha) of the same compound?
Its value is 100.

And the “Plant response rating (0 to 100), Corn” value ([2]; Postemergence, 62 g ai/ha)?
Its value is 0.

What about the “Plant response rating (0 to 100), Corn” value ([2]; Postemergence, 125 g ai/ha) of the same compound?
Its value is 0.

And the “Plant response rating, Corn” value [2, 13]?
Its value is 0.

And the “Plant response rating, Corn” value [2, 14]?
The value was 0.

What about the “Plant response rating, Corn” value ([2]; Preemergence, 62 g ai/ha) of the same compound?
Its value is 0.

And the “Plant response rating, Corn” value ([2]; Preemergence, 125 g ai/ha)?
Its value is 0.

What about the “Plant response rating, Corn” value ([2]; Preemergence, 250 g ai/ha) of the same compound?
The value was 0.

What about the “Plant response rating, Corn” value ([2]; Preemergence, 500 g ai/ha) of the same compound?
Its value is 0.

What about the “Plant response rating (0 to 100), Velvetleaf” value ([3]; Postemergence, 62 g ai/ha) of the same compound?
The value was 65.

And the “Plant response rating (0 to 100), Velvetleaf” value ([3]; Postemergence, 125 g ai/ha)?
The value was 70.

What about the “Plant response rating, Velvetleaf” value [3, 13] of the same compound?
The value was 75.

And the “Plant response rating, Velvetleaf” value [3, 14]?
The value was 75.

And the “Plant response rating, Velvetleaf” value ([3]; Preemergence, 62 g ai/ha)?
The value was 10.

What about the “Plant response rating, Velvetleaf” value ([3]; Preemergence, 125 g ai/ha) of the same compound?
The value was 40.

And the “Plant response rating, Velvetleaf” value ([3]; Preemergence, 250 g ai/ha)?
The value was 65.

And the “Plant response rating, Velvetleaf” value ([3]; Preemergence, 500 g ai/ha)?
Its value is 60.

And the “Plant response rating (0 to 100), Nutsedge, Yellow” value ([4]; Postemergence, 62 g ai/ha)?
Its value is 0.

And the “Plant response rating (0 to 100), Nutsedge, Yellow” value ([4]; Postemergence, 125 g ai/ha)?
Its value is 0.

What about the “Plant response rating, Nutsedge, Yellow” value [4, 13] of the same compound?
The value was 0.

What about the “Plant response rating, Nutsedge, Yellow” value [4, 14] of the same compound?
The value was 0.

And the “Plant response rating, Nutsedge, Yellow” value ([4]; Preemergence, 62 g ai/ha)?
The value was 0.

What about the “Plant response rating, Nutsedge, Yellow” value ([4]; Preemergence, 125 g ai/ha) of the same compound?
Its value is 0.

What about the “Plant response rating, Nutsedge, Yellow” value ([4]; Preemergence, 250 g ai/ha) of the same compound?
The value was 0.

And the “Plant response rating, Nutsedge, Yellow” value ([4]; Preemergence, 500 g ai/ha)?
Its value is 0.

What about the “Plant response rating (0 to 100), Blackgrass” value ([5]; Postemergence, 62 g ai/ha) of the same compound?
The value was 0.

What about the “Plant response rating, Blackgrass” value ([5]; Postemergence, 125 g ai/ha, scale 0 to 100) of the same compound?
The value was 5.

What about the “Plant response rating, Blackgrass” value [5, 13] of the same compound?
The value was 0.

What about the “Plant response rating, Blackgrass” value [5, 14] of the same compound?
Its value is 0.

And the “Plant response rating, Blackgrass” value ([5]; Preemergence, 62 g ai/ha)?
Its value is 20.

What about the “Plant response rating, Blackgrass” value ([5]; Preemergence, 125 g ai/ha) of the same compound?
The value was 0.

And the “Plant response rating, Blackgrass” value ([5]; Preemergence, 250 g ai/ha)?
Its value is 50.

What about the “Plant response rating, Blackgrass” value ([5]; Preemergence, 500 g ai/ha) of the same compound?
The value was 0.

And the “Plant response rating (0 to 100), Crabgrass, Large” value ([6]; Postemergence, 62 g ai/ha)?
Its value is 0.

And the “Plant response rating (0 to 100), Crabgrass, Large” value ([6]; Postemergence, 125 g ai/ha)?
Its value is 0.

And the “Plant response rating, Crabgrass, Large” value [6, 13]?
The value was 10.

What about the “Plant response rating, Crabgrass, Large” value [6, 14] of the same compound?
The value was 10.

What about the “Plant response rating, Crabgrass, Large” value ([6]; Preemergence, 62 g ai/ha) of the same compound?
The value was 0.

And the “Plant response rating, Crabgrass, Large” value ([6]; Preemergence, 125 g ai/ha)?
Its value is 0.

And the “Plant response rating, Crabgrass, Large” value ([6]; Preemergence, 250 g ai/ha)?
The value was 0.

What about the “Plant response rating, Crabgrass, Large” value ([6]; Preemergence, 500 g ai/ha) of the same compound?
Its value is 0.

What about the “Plant response rating (0 to 100), Galium” value ([7]; Postemergence, 62 g ai/ha) of the same compound?
The value was 0.

And the “Plant response rating (0 to 100), Galium” value ([7]; Postemergence, 125 g ai/ha)?
Its value is 0.

What about the “Plant response rating, Galium” value [7, 13] of the same compound?
Its value is 0.

And the “Plant response rating, Galium” value [7, 14]?
The value was 0.

And the “Plant response rating, Galium” value ([7]; Preemergence, 62 g ai/ha)?
Its value is 0.

And the “Plant response rating, Galium” value ([7]; Preemergence, 125 g ai/ha)?
The value was 50.

And the “Plant response rating, Galium” value ([7]; Preemergence, 250 g ai/ha)?
Its value is 80.

What about the “Plant response rating, Galium” value ([7]; Preemergence, 500 g ai/ha) of the same compound?
Its value is 30.

What about the “Plant response rating (0 to 100), Pigweed” value ([8]; Postemergence, 62 g ai/ha) of the same compound?
Its value is 80.

And the “Plant response rating (0 to 100), Pigweed” value ([8]; Postemergence, 125 g ai/ha)?
Its value is 95.

What about the “Plant response rating, Pigweed” value [8, 13] of the same compound?
Its value is 100.

And the “Plant response rating, Pigweed” value [8, 14]?
The value was 100.

And the “Plant response rating, Pigweed” value ([8]; Preemergence, 62 g ai/ha)?
The value was 98.

And the “Plant response rating, Pigweed” value ([8]; Preemergence, 125 g ai/ha)?
The value was 100.

What about the “Plant response rating, Pigweed” value ([8]; Preemergence, 250 g ai/ha) of the same compound?
The value was 100.

What about the “Plant response rating, Pigweed” value ([8]; Preemergence, 500 g ai/ha) of the same compound?
The value was 100.

What about the “Plant response rating (0 to 100), Soybean” value ([9]; Postemergence, 62 g ai/ha) of the same compound?
Its value is 0.

And the “Plant response rating (0 to 100), Soybean” value ([9]; Postemergence, 125 g ai/ha)?
Its value is 0.

What about the “Plant response rating, Soybean” value [9, 13] of the same compound?
Its value is 0.

And the “Plant response rating, Soybean” value [9, 14]?
Its value is 0.

And the “Plant response rating, Soybean” value ([9]; Preemergence, 62 g ai/ha)?
Its value is 0.

And the “Plant response rating, Soybean” value ([9]; Preemergence, 125 g ai/ha)?
Its value is 0.

What about the “Plant response rating, Soybean” value ([9]; Preemergence, 250 g ai/ha) of the same compound?
Its value is 40.

And the “Plant response rating, Soybean” value ([9]; Preemergence, 500 g ai/ha)?
Its value is 0.

What about the “Plant response rating (0 to 100), Morningglory” value ([10]; Postemergence, 62 g ai/ha) of the same compound?
The value was 0.

And the “Plant response rating (0 to 100), Morningglory” value ([10]; Postemergence, 125 g ai/ha)?
The value was 0.

What about the “Plant response rating, Morningglory” value [10, 13] of the same compound?
Its value is 0.

What about the “Plant response rating, Morningglory” value [10, 14] of the same compound?
Its value is 55.

And the “Plant response rating, Morningglory” value ([10]; Preemergence, 62 g ai/ha)?
Its value is 0.

What about the “Plant response rating, Morningglory” value ([10]; Preemergence, 125 g ai/ha) of the same compound?
Its value is 0.

And the “Plant response rating, Morningglory” value ([10]; Preemergence, 250 g ai/ha)?
Its value is 0.

And the “Plant response rating, Morningglory” value ([10]; Preemergence, 500 g ai/ha)?
Its value is 0.

What about the “Plant response rating (0 to 100), Ragweed” value ([11]; Postemergence, 62 g ai/ha) of the same compound?
The value was 65.

And the “Plant response rating (0 to 100), Ragweed” value ([11]; Postemergence, 125 g ai/ha)?
The value was 75.

What about the “Plant response rating, Ragweed” value [11, 13] of the same compound?
Its value is 90.

What about the “Plant response rating, Ragweed” value [11, 14] of the same compound?
The value was 75.

What about the “Plant response rating, Ragweed” value ([11]; Preemergence, 62 g ai/ha) of the same compound?
Its value is 98.

And the “Plant response rating, Ragweed” value ([11]; Preemergence, 125 g ai/ha)?
The value was 70.

What about the “Plant response rating, Ragweed” value ([11]; Preemergence, 250 g ai/ha) of the same compound?
Its value is 70.

And the “Plant response rating, Ragweed” value ([11]; Preemergence, 500 g ai/ha)?
The value was 100.

And the “Plant response rating (0 to 100), Ryegrass, Italian” value ([12]; Postemergence, 62 g ai/ha)?
The value was 5.

What about the “Plant response rating (0 to 100), Ryegrass, Italian” value ([12]; Postemergence, 125 g ai/ha) of the same compound?
The value was 0.

What about the “Plant response rating, Ryegrass, Italian” value [12, 13] of the same compound?
Its value is 5.

What about the “Plant response rating, Ryegrass, Italian” value [12, 14] of the same compound?
Its value is 5.

And the “Plant response rating, Ryegrass, Italian” value ([12]; Preemergence, 62 g ai/ha)?
Its value is 0.

And the “Plant response rating, Ryegrass, Italian” value ([12]; Preemergence, 125 g ai/ha)?
The value was 0.

And the “Plant response rating, Ryegrass, Italian” value ([12]; Preemergence, 250 g ai/ha)?
Its value is 0.

And the “Plant response rating, Ryegrass, Italian” value ([12]; Preemergence, 500 g ai/ha)?
Its value is 0.
